Test results published in PMC12467535 (Biomedicines, 2025).
Read-outs that look alike come from different tables or passages of the source. Each block holds one substance with its values, some of them ahead of it. No end group written: not given here.

Key:
[1] = test system: retinal pigment epithelium (RPE); test: Delayed sodium iodate challenge rabbit model, RPE lesion area by fluorescein angiography; assay type: in vivo, Dutch-belted rabbit; conditions: for protection against sodium iodate-induced lesion (lesion size): no statistically significant difference between the two doses
Procedure: A 20 mg/mL stock solution of sodium iodate (NaIO3, Sigma Aldrich, St. Louis, MO, USA, Cat#54007) was prepared in sterile 0.9% injectable saline (Cytiva, Marlborough, MA, USA, Z1376), aliquoted into single-use vials, and stored at −20 °C until use. On the day of dosing, aliquots were thawed at room temperature and used immediately. For NaIO3 administration, rabbits were weighed and anesthetized with 2–5% isoflurane (Dechra, Norwich, United Kingdom, 17033-094-25) delivered in medical-grade oxygen at a flow rate of 1.0 to 1.5 L/min via chamber until sedated, then moved to facemask for the injection procedure. The left ear was shaved and disinfected with […] prior to intravenous injection. An indwelling catheter was inserted into the marginal ear vein and flushed with sterile 0.9% injectable saline to ensure patency. Sodium iodate was administered intravenously at a dose of 18 mg/kg body weight, followed by a 0.3 mL saline flush. […] Ten animals were used in each treatment group and 6 animals served as the naïve control group.
Fluorescein angiography was performed following topical anesthesia of the rabbit eyes with proparacaine hydrochloride 0.5% (Akorn, 24208-730-06) and pharmacologic dilation with tropicamide (Akorn, 17478-102-12) and phenylephrine (Akorn, 17478-206-12). The rabbits were anesthetized with isoflurane and the ear was prepared as stated above. A 50 µL bolus of 10% sodium fluorescein (Akorn, 59399-001-04) was injected into the marginal ear vein and allowed to circulate for at least 2 min prior to imaging. Fundus images were captured (Spectralis, Heidelberg Engineering) to document and quantify the extent of visible choroidal and RPE degeneration in both eyes. The area of RPE depigmentation was quantified using ImageJ software (version 1.51j8). In certain cases where the damage extended well into the periphery it was not possible to image the entire edge of the affected area, and these cases were labeled “too large to grade” and were excluded from the final analysis.
With a favorable pharmacokinetic profile, we next evaluated the durability of ONL1204 protection. […] The dose of the systemic sodium iodate had been selected based on a titration that identified a level of systemic sodium iodate that led to localized and quantifiable damage to the rabbit RPE. This damage was assessed one day after sodium iodate administration by quantifying the depigmented lesion area, defined as regions of visible choroid (“window defect”) on fluorescein angiography (Figure 3A,B).

[2] = test system: retinal pigment epithelium (RPE); test: Chronic CS/HFD apoB100 mouse model of dry AMD, RPE morphology on ZO-1 flatmounts; assay type: in vivo; conditions: apoB100 mice, 6 months CS/HFD, two IVT injections 6 weeks apart; p < 0.05
Source text: For the mouse study, an equal number of male and female apolipoproteinB100 (apoB100) mice on a C57/S129 background were used. These animals carry a mutation in the editing gene apobec1, resulting in the predominant production of apoB100 in these mice, contrasting to the majority of mice that predominantly produce apoB48 [24]. For all mice strains, the rd8 mutation was bred out. Mice were fed a standard diet until they were put in the smoking chamber and then were fed a high-fat diet (HFD) consisting of 60% fat, 20% protein, and 20% carbohydrate (Research Diets, Inc., New Brunswick, NJ, USA). The study was approved by the Johns Hopkins IACUC. […]
For retinal and RPE flatmount immunofluorescence confocal microscopy, mice were euthanized and eyes enucleated (7 eyes/treatment group) to be processed for staining for IBA1 (microglia/monocyte marker) and ZO-1 (RPE morphology). […] For retinal quadrants, microglia/monocytes/macrophages, defined by IBA1-immunolabeled cell bodies, were counted in five 20 × power fields per flatmount. For RPE/choroid quadrants, each image was used to measure the RPE cell aspect ratio and the average size per cell using ImageJ after setting a threshold as indicated by the software At least 15 cells were measured/experimental group, with n = 5 animals/group, using our previously published protocol.

caspase-8 = test: Caspase-8 activity assay in RPE lysates of CS/HFD apoB100 mice; assay type: in vivo; conditions: chronic CS/HFD, two IVT injections, p < 0.05
Procedure: (§1) At 8 weeks of age, male and female mice were placed in a smoking chamber for 5 h/day, 5 days/week for 6 months following our published protocol.
After the retina and RPE/choroid were harvested, protein was extracted using RIPA Buffer (Sigma-Aldrich, St Louis, MO, USA) with Proteinase inhibitor and phosphatase inhibitor. Nine eyes per treatment group were used in this assay, and each sample included 75 μg of protein to standardize the amount of tissue with the Luminescent Caspase-Glow 8 assay kit (Promega, Madison, WI, USA) used according to manufacturer’s protocol. […]

[3] = test system: IBA1+ inflammatory cells in the retina; test: IBA1+ cell count in retinal flatmounts of CS/HFD apoB100 mice; assay type: in vivo; conditions: chronic CS/HFD, two IVT injections, p < 0.000001
Procedure: as §1
For retinal and RPE flatmount immunofluorescence confocal microscopy, mice were euthanized and eyes enucleated (7 eyes/treatment group) to be processed for staining for IBA1 (microglia/monocyte marker) and ZO-1 (RPE morphology). The anterior segments were removed, and the retina was carefully separated from the RPE/choroid complex. Tissues were fixed in 2% paraformaldehyde in Tris-buffered saline (TBS) at 4 °C overnight. Retina flatmounts were processed with TBS/1% bovine serum albumin (BSA) and 5% donkey serum overnight at 4 °C. The flatmounts were then incubated with goat polyclonal anti-AIF-1/IBA1 antibody (1:50; Novus biologicals, Centennial, CO, USA) for 48 h at 4 °C, washed, and incubated with donkey anti-goat Cy3 secondary antibody (Abcam, Cambridge, MA, USA) overnight at 4 °C [27]. […] For retinal quadrants, microglia/monocytes/macrophages, defined by IBA1-immunolabeled cell bodies, were counted in five 20 × power fields per flatmount. For RPE/choroid quadrants, each image was used to measure the RPE cell aspect ratio and the average size per cell using ImageJ after setting a threshold as indicated by the software At least 15 cells were measured/experimental group, with n = 5 animals/group, using our previously published protocol.

[4] = rabbit, in vivo
Source text: (§2) Prior to injection, each eye was moistened with an ophthalmic Betadine solution, which was then washed out of the eyes with sterile saline. Then, 0.5% proparacaine was applied to the ocular surface prior to the injection.
(§3) For both studies, animals were euthanized at the indicated time points. Eyes were enucleated, snap frozen in liquid nitrogen, and stored frozen until dissection for collection of vitreous, retina, and RPE/choroid for bioanalysis. […] For statistical determination, all values that were below the lower limit of quantification (LLOQ) were considered zero. Pharmacokinetic analysis was performed from the composite concentration versus time data generated for ocular tissue samples through Day 84 using Phoenix WinNonlin (version 8.5.2.4) software.

[5] = minipig, in vivo
Procedure: (§4) Prior to the IVT injection, a combination of 100 mg Telazol, 50 mg ketamine, and 50 mg xylazine per mL of solution was administered via intramuscular injection at 0.03–0.06 mL/kg. For two animals, dexmedetomidine (0.02 or 0.03 mg/kg) was administered as a supplementary anesthetic via intramuscular injection. Proparacaine was then administered to eye, followed by tropicamide. The area surrounding the eye was swabbed with an ophthalmic Betadine solution.
as §3

[6] = minipig, in vivo; remark: listed apart in the source
Procedure: as §4, §3

in vivo [7] = conditions: Dutch-belted, rabbit
Source text: as §2, §3

in vivo [8] = conditions: Göttingen, minipig
Procedure: as §4, §3

[9] = human, in vivo; cited from earlier work
GA lesion growth = test system: GA lesion growth; parameters: method as in PMID 37696275, PMID 37865470; conditions: patients with geographic atrophy, after one year of treatment, relative to sham; range given for either agent; cited from earlier work
[10] = 10 ug/eye, Average concentration of ONL1204 in RPE/choroid
[11] = 10 ug/eye, Average concentration of ONL1204 in retina
[12] = 50 ug/eye, Average concentration of ONL1204 in RPE/choroid
[13] = 50 ug/eye, Average concentration of ONL1204 in retina
[14] = 100 ug/eye, Average concentration of ONL1204 in RPE/choroid
[15] = 100 ug/eye, Average concentration of ONL1204 in retina
[16] = 200 ug/eye, Average concentration of ONL1204 in RPE/choroid
[17] = 200 ug/eye, Average concentration of ONL1204 in retina
[18] = 300 ug/eye, Average concentration of ONL1204 in RPE/choroid
[19] = 300 ug/eye, Average concentration of ONL1204 in retina

Substance: HHIYLGAVNYIY-NH2 (C-terminus assumed) [ONL1204]
protection against sodium iodate-induced lesion (lesion size) ([1]; single IVT 25 µg on Day 0, sodium iodate 18 mg/kg i.v. on Day 4): comparable levels of protection | protection against sodium iodate-induced lesion (lesion size) ([1]; single IVT 100 µg on Day 0, sodium iodate 18 mg/kg i.v. on Day 4): comparable levels of protection | lesion area vs vehicle-treated controls and 25 µg group ([1]; single IVT 100 µg on Day 0, sodium iodate on Day 14): significantly smaller lesion areas | lesion area vs vehicle-treated controls and 25 µg group ([1]; single IVT 100 µg on Day 0, sodium iodate on Day 28): significantly smaller lesion areas | posterior RPE cell area vs vehicle [2]: significantly lower than the control | Caspase-8 activity in whole RPE lysates vs vehicle (caspase-8): significantly reduced | IBA1+ inflammatory cell infiltration in the retina vs vehicle [3]: decreased

half-life ([4]; 10 ug, calculated vitreous half-life): 147 days | half-life ([4]; 50 ug, calculated vitreous half-life): 116 days | half-life ([4]; 100 ug, calculated vitreous half-life): 124 days | half-life ([4]; vitreous humor half-life): > 100 days | half-life ([5]; half-life calculated from the vitreous humor data): 112 days | half-life ([5]; vitreous humor half-life): > 100 days | half-life calculated from the vitreous humor data [6]: 117.18 days | stability in plasma: rapidly broken down by peptidases | tissue level at time at 24 h (in vivo [7]; [10]): 5.45 ng/g | tissue level at time at 672 h (in vivo [7]; [10]): 10.5 ng/g | tissue level at time at 1344 h (in vivo [7]; [10]): 144 ng/g | tissue level at time at 1992 h (in vivo [7]; [10]): 213 ± 207 ng/g | tissue level at time at 24 h (in vivo [7]; [11]): 11.2 ± 8.4 ng/g | tissue level at time at 672 h (in vivo [7]; [11]): 51 ± 97.9 ng/g | tissue level at time at 1344 h (in vivo [7]; [11]): 14.3 ± 15.1 ng/g | tissue level at time at 24 h (in vivo [7]; [12]): 58 ± 79.8 ng/g | tissue level at time at 672 h (in vivo [7]; [12]): 92.4 ng/g | tissue level at time at 1344 h (in vivo [7]; [12]): 61.8 ng/g | tissue level at time at 1992 h (in vivo [7]; [12]): 209 ± 251 ng/g | tissue level at time at 24 h (in vivo [7]; [13]): 75.6 ± 144 ng/g | tissue level at time at 672 h (in vivo [7]; [13]): 27 ± 36.6 ng/g | tissue level at time at 1344 h (in vivo [7]; [13]): 37.8 ± 48.4 ng/g | tissue level at time at 1992 h (in vivo [7]; [13]): 201 ± 268 ng/g | tissue level at time at 24 h (in vivo [7]; [14]): 174 ± 149 ng/g | tissue level at time at 672 h (in vivo [7]; [14]): 40.6 ng/g | tissue level at time at 1344 h (in vivo [7]; [14]): 36.2 ± 41 ng/g | tissue level at time at 24 h (in vivo [7]; [15]): 183 ± 346 ng/g | tissue level at time at 672 h (in vivo [7]; [15]): 42.3 ± 72.1 ng/g | tissue level at time at 1344 h (in vivo [7]; [15]): 22.7 ± 27.9 ng/g | tissue level at time at 1992 h (in vivo [7]; [15]): 86.1 ± 103 ng/g | tissue level at time at 144 h (in vivo [8]; [16]): 189 ± 160 ng/g | tissue level at time at 672 h (in vivo [8]; [16]): 66.5 ± 87.8 ng/g | tissue level at time at 2112 h (in vivo [8]; [16]): 38.2 ± 21.7 ng/g | tissue level at time at 144 h (in vivo [8]; [17]): 17.8 ± 27.3 ng/g | tissue level at time at 672 h (in vivo [8]; [17]): 2.05 ng/g | tissue level at time at 144 h (in vivo [8]; [18]): 101 ± 91.4 ng/g | tissue level at time at 672 h (in vivo [8]; [18]): 82.4 ± 34.5 ng/g | tissue level at time at 2112 h (in vivo [8]; [18]): 29.8 ng/g | tissue level at time at 144 h (in vivo [8]; [19]): 7.2 ± 6.37 ng/g | tissue level at time at 672 h (in vivo [8]; [19]): 23.8 ± 16.4 ng/g
Substance: HHIYLGAVNYIY-NH2 [ONL1204]
safety in Phase 1 clinical trial [9]: safe

Substance: avacincaptad pegol
reduction of the rate of GA lesion growth (GA lesion growth): 14–26%

Substance: pegcetacoplan
reduction of the rate of GA lesion growth (GA lesion growth): 14–26%
